“And” between values parts separate entries of the source, which are not always exact repeats. Identical values can stand only once.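 Cultured in 96-well plates, cells were exposed to test compound for 48 hours across five concentrations. GI50 = concentration required for 50% inhibition of growth. TGI: total growth inhibition.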
These molecules were tested on 786-0 renal (assay: inhibition of tumour cell growth, NCI panel, 48 h).
Work on `Nc1nc(Cl)cc(NCCCCCCCCNc2cc(Cl)nc(N)n2)n1` yielded a TGI greater than 100 µM.
`CC(C)N(C(=O)C12C3C4C1C1C4(C#N)C3C12C#N)C(C)C` (stereo unspecified) showed a TGI greater than 100 µM.
With `O=C1CCC(Cl)=CC2CCCN12` (stereo unspecified) the TGI was greater than 100 µM.
With `c1ccc2cc(-c3cc4ccccc4s3)ccc2c1` the TGI was greater than 100 µM.
`CCOC(=O)C(C#N)C1=CC(=O)C(=O)c2ccc(OC)cc21` (stereo unspecified) showed a TGI of 64.9 µM.
For `Cc1ccc(S(=O)(=O)Nc2ccccc2C=O)cc1`, the TGI was 35.9 µM.
In the case of `Cc1ccc(S(=O)(=O)N(C=O)N=C2CCN(Cc3ccccc3)CC2)cc1`, the TGI was greater than 100 µM.
Work on `CC(C)C(CCl)NC(=O)c1cccc(C(=O)N[C@H](CCl)C(C)C)n1` (stereo in doubt) yielded a TGI greater than 100 µM.
`CCC(=O)CC(=O)CCC(=O)Nc1cc(C)ccc1C` was tested, and the TGI was greater than 100 µM.
For `CC[As](CC)SC[C@H](C)C(=O)N1CCC[C@H]1C(=O)O`, the GI50 was 0.021 µM and the TGI was 0.0743 µM.
Molecule `NC(N)=N/N=C/c1c(-c2ccsc2)nc2sccn12` has a GI50 of 12 µM and a TGI of 24.3 µM.
`O=c1/c(=C/c2ccccc2[N+](=O)[O-])sc2nnc(-c3ccco3)n12` gave a TGI greater than 100 µM.
`CC(=O)CCn1ncc(Cl)c(Cl)c1=O` showed a TGI of 54.9 µM.
`C[N+](C)(C)CC1CCCc2ccccc2C1=O` (stereo unspecified) was tested, and the GI50 was 8.46 µM and the TGI was 6.44 µM and 21.7 µM.
`CN1CC(=O)N2Cc3ccccc3-n3cccc3C2C1` (stereo unspecified) was tested, and the TGI was greater than 100 µM.
In the case of `NC(=S)N/N=C/C(=O)O`, the GI50 was greater than 100 µM and the TGI was greater than 100 µM.
For `Cc1ccc(SC2c3ccc(C)cc3Oc3nc(N)c(C#N)c(N)c32)cc1` (stereo unspecified), the GI50 was 1.72 µM and the TGI was 3.16 µM.
`Cc1cn2c(=O)c3ncn(C4OC(CO)C(O)C4O)c3n(C)c2n1` (stereo unspecified) was tested, and the TGI was greater than 100 µM.

Each molecule was assayed on SNB-19 CNS (assay: inhibition of tumour cell growth, NCI panel, 48 h).
For `Clc1ccc2c(c1)[nH]c1c2nc2ccccn21`, the TGI was 58.6 µM and 35.3 µM.
`CCOC(=O)c1cnc2c(ccc3[nH]n(C)nc32)c1=O` gave a TGI greater than 100 µM.
Molecule `NC(=S)N/N=C(\CC1OC(=O)c2ccccc21)c1ccc(Cl)cc1` (stereo unspecified) has a TGI greater than 100 µM.
Molecule `COc1ccc2occ(CCC(=O)O)c2c1` has a TGI greater than 100 µM.
`COC(=O)C(C(=O)c1ccccc1)C(C(=O)C(=O)Nc1ccc(OC)cc1OC)C(=O)C(=O)c1ccc(C)cc1` (stereo unspecified) gave a TGI greater than 100 µM.
Work on `CC1(C)COC(C2(C)C(=O)C=C(c3ccccc3)c3ccccc32)=N1` (stereo unspecified) yielded a TGI greater than 100 µM.
`COc1ccc(Sc2[nH]c(C(C)=O)c3ccccc23)cc1` gave a GI50 of 11.6 µM and a TGI of 31.2 µM.
`C#CCOc1cccc(-c2ncc3cc(NC(=O)CCl)ccc3n2)c1` showed a GI50 of 1.76 µM and a TGI of 3.45 µM.
In the case of `CC12C/C(=C\c3ccccc3)C(=O)C3C1CCCC32`, the TGI was greater than 100 µM.
`OC(CC1SCCCS1)c1ccccc1` (stereo unspecified) gave a TGI greater than 100 µM.
For `CCCCOC(=O)CNC(=O)OC/C=C/C#CC#C/C=C/COC(=O)NCC(=O)OCCCC`, the GI50 was greater than 100 µM and the TGI was greater than 100 µM.
`O=C1c2ccccc2C(=O)N1CCn1ccc(NC(c2ccccc2)(c2ccccc2)c2ccccc2)nc1=O` gave a TGI of 86.1 µM.
Molecule `CC(C)(C)NNC(=O)CCn1[nH]c(=O)c(Cl)c(Cl)c1=O` has a TGI greater than 100 µM.
`O=CCC1CCCCC1` showed a TGI greater than 100 µM.
For `CCC12CCCN(Cc3ccccc3)C1c1c(n(C)c3ccccc13)CC2` (stereo unspecified), the TGI was greater than 253 µM.
`CSc1nc(=O)n(CCC#N)nc1SC` showed a TGI greater than 100 µM.
`Nc1ccc([N+](=O)[O-])cc1N=C/C=C/c1ccccc1` showed a GI50 of 31.5 µM and a TGI greater than 100 µM.
For `COc1cc(-c2oc(=O)ccc2C#Cc2ccccn2)cc(OC)c1OC`, the GI50 was 3.8 µM and the TGI was greater than 76.1 µM.
`CCN(CC)CCCN1CCc2c([nH]c3ccccc23)C1c1cccnc1` (stereo unspecified) showed a TGI greater than 100 µM.
In the case of `COC(=O)C1c2cc3c(cc2C(OC2OC(C)C(OC)C(C)(OC)C2OC)CC1(C)O)C(=O)c1c(O)cc2c(c1C3=O)OC1OC2(C)C(O)C([N+](C)(C)[O-])C1O` (stereo unspecified), the TGI was greater than 36.1 µM.
Work on `CNCc1ccccc1-c1csc([C@@H](C)Nc2nc(C)nc3cc(OC)c(OC)cc23)c1` yielded a GI50 of 1.84 µM and a TGI of 6.69 µM.
`Nc1nc(Cl)cc(NCCCCCCCCNc2cc(Cl)nc(N)n2)n1` showed a TGI greater than 100 µM.
`CC(C)N(C(=O)C12C3C4C1C1C4(C#N)C3C12C#N)C(C)C` (stereo unspecified) gave a TGI greater than 100 µM.
For `O=C1CCC(Cl)=CC2CCCN12` (stereo unspecified), the TGI was greater than 100 µM.
In the case of `c1ccc2cc(-c3cc4ccccc4s3)ccc2c1`, the TGI was greater than 100 µM.
For `CCOC(=O)C(C#N)C1=CC(=O)C(=O)c2ccc(OC)cc21` (stereo unspecified), the TGI was 54.8 µM.
`Cc1ccc(S(=O)(=O)Nc2ccccc2C=O)cc1` showed a TGI of 75 µM.

Source: PubChem BioAssay (NCI)
